Assay results as given in ChEMBL document CHEMBL1201861, “Genomics of Drug Sensitity in Cancer screening data, Wellcome Trust Sanger Institute”.

Legend:
[1] = test system: D-392MG; assay: cells; assay type: functional, cell-based; conditions: Homo sapiens
[2] = test system: NCI-H1963; assay: cells; assay type: functional, cell-based, Homo sapiens; conditions: Homo sapiens, NCI-H1963;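 further: cell growth inhibition of the human line, determined with a cell viability assay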
Description: SANGER: Inhibition of human NCI-H1963 cell growth in a cell viability assay.

[3] = test system: NCI-H2171; assay: cells; assay type: functional, cell-based, Homo sapiens; conditions: Homo sapiens, NCI-H2171;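 further: growth inhibition of human NCI-H2171 cells, read out by a cell viability assay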
Description: SANGER: Inhibition of human NCI-H2171 cell growth in a cell viability assay.

[4] = test system: NCI-H322M; assay: cells; assay type: functional, cell-based, Homo sapiens; conditions: Homo sapiens, NCI-H322M;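 further: cell viability assay measuring inhibition of growth of human NCI-H322M cells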
Description: SANGER: Inhibition of human NCI-H322M cell growth in a cell viability assay.

[5] = test system: MOLT-13; assay: cells; assay type: functional, cell-based; conditions: Homo sapiens;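 further: IC50 for suppression of MOLT-13 cell growth, read out with a cell viability assay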
Description: SANGER: Inhibition of human MOLT-13 cell growth in a cell viability assay.

[6] = test system: ST486; assay: SANGER: Inhibition of human ST486 cell growth in a cell viability assay.; assay type: functional, cell-based; conditions: Homo sapiens, ST486
[7] = test system: YT; assay: cells; assay type: functional, cell-based, Homo sapiens; conditions: Homo sapiens, YT
Description: SANGER: Inhibition of human YT cell growth in a cell viability assay.

[8] = test system: LP-1; assay: cells; assay type: functional, cell-based, Homo sapiens; conditions: Homo sapiens, LP-1;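 further: growth inhibition of human LP-1 cells, with the read-out taken from a cell viability assay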
Description: SANGER: Inhibition of human LP-1 cell growth in a cell viability assay.

[9] = test system: NCI-H1417; assay: cells; assay type: functional, cell-based, Homo sapiens; conditions: Homo sapiens, NCI-H1417;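 further: human NCI-H1417 cells, growth inhibition determined with a cell viability readout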
Description: SANGER: Inhibition of human NCI-H1417 cell growth in a cell viability assay.

[10] = test system: SU-DHL-1; assay: SANGER: Inhibition of human SU-DHL-1 cell growth in a cell viability assay.; assay type: functional, cell-based; conditions: Homo sapiens, SU-DHL-1
[11] = test system: NCI-H2081; assay: cells; assay type: functional, cell-based, Homo sapiens; conditions: Homo sapiens, NCI-H2081;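 further: growth inhibition of human NCI-H2081 cells, read out with a cell viability assay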
Description: SANGER: Inhibition of human NCI-H2081 cell growth in a cell viability assay.

[12] = test system: RPMI-6666; assay: cells; assay type: functional, cell-based, Homo sapiens; conditions: Homo sapiens, RPMI-6666
Description: SANGER: Inhibition of human RPMI-6666 cell growth in a cell viability assay.

[13] = test system: SIG-M5; assay: cells; assay type: functional, cell-based, Homo sapiens; conditions: Homo sapiens, SIG-M5;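 further: cell viability assay read-out, measuring how strongly growth of cultured human SIG-M5 cells is inhibited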
Description: SANGER: Inhibition of human SIG-M5 cell growth in a cell viability assay.

[14] = test system: U-118-MG; assay: cells; assay type: functional, cell-based; conditions: Homo sapiens
Description: SANGER: Inhibition of human U-118-MG cell growth in a cell viability assay.

[15] = test system: C3A; assay: cells; assay type: functional, cell-based; conditions: Homo sapiens;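 further: growth inhibition of C3A human cells, quantified with a cell viability readout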
Description: SANGER: Inhibition of human C3A cell growth in a cell viability assay.

[16] = test system: ACHN; assay: cells; assay type: functional, cell-based; conditions: Homo sapiens;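 further: cell viability read-out used to gauge how strongly growth of human ACHN cells is suppressed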
Description: SANGER: Inhibition of human ACHN cell growth in a cell viability assay.

[17] = test system: MDA-MB-231; assay: cells; assay type: functional, cell-based; conditions: Homo sapiens
Description: SANGER: Inhibition of human MDA-MB-231 cell growth in a cell viability assay.

[18] = test system: GAMG; assay: cells; assay type: functional, cell-based; conditions: Homo sapiens;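 further: cell growth inhibition measured by a viability assay in the GAMG human cell line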
Description: SANGER: Inhibition of human GAMG cell growth in a cell viability assay.

[19] = test system: CAMA-1; assay: cells; assay type: functional, cell-based; conditions: Homo sapiens;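 further: growth inhibition of CAMA-1 cells, read out with a cell viability assay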
Description: SANGER: Inhibition of human CAMA-1 cell growth in a cell viability assay.

[20] = test system: 8305C; assay: cells; assay type: functional, cell-based; conditions: Homo sapiens
Description: SANGER: Inhibition of human 8305C cell growth in a cell viability assay.

[21] = test system: U2OS; assay: cells; assay type: functional, cell-based, U-2-OS; conditions: Homo sapiens;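 further: growth inhibition of human U-2-OS cells, determined with a cell viability assay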
Description: SANGER: Inhibition of human U-2-OS cell growth in a cell viability assay.

[22] = test system: MKN-45; assay: cells; assay type: functional, cell-based; conditions: Homo sapiens;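 further: growth inhibition of human MKN-45 cells, measured with a cell viability assay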
Description: SANGER: Inhibition of human MKN45 cell growth in a cell viability assay.

[23] = test system: HOS; assay: cells; assay type: functional, cell-based; conditions: Homo sapiens;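 further: growth inhibition of human HOS cells, read out with a cell viability assay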
Description: SANGER: Inhibition of human HOS cell growth in a cell viability assay.

[24] = test system: M14; assay: cells; assay type: functional, cell-based; conditions: Homo sapiens;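 further: growth inhibition of M14 cells, read out with a cell viability assay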
Description: SANGER: Inhibition of human M14 cell growth in a cell viability assay.

[25] = test system: HCC1954; assay: cells; assay type: functional, cell-based; conditions: Homo sapiens;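 further: growth inhibition of human HCC1954 cells, read out with a cell viability assay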
Description: SANGER: Inhibition of human HCC1954 cell growth in a cell viability assay.

[26] = test system: EGI-1; assay: cells; assay type: functional, cell-based; conditions: Homo sapiens;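 further: cell viability readout used to gauge growth inhibition of EGI-1 cells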
Description: SANGER: Inhibition of human EGI-1 cell growth in a cell viability assay.

[27] = test system: G-402; assay: cells; assay type: functional, cell-based; conditions: Homo sapiens
Description: SANGER: Inhibition of human G-402 cell growth in a cell viability assay.

[28] = test system: NY; assay: cells; assay type: functional, cell-based; conditions: Homo sapiens
Description: SANGER: Inhibition of human NY cell growth in a cell viability assay.

[29] = test system: NCI-H28; assay: cells; assay type: functional, cell-based; conditions: Homo sapiens;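 further: growth inhibition of human NCI-H28 cells, read out as cell viability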
Description: SANGER: Inhibition of human NCI-H28 cell growth in a cell viability assay.

[30] = test system: SW1417; assay: cells; assay type: functional, cell-based; conditions: Homo sapiens;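 further: growth inhibition of human SW1417 cells, read out with a cell viability assay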
Description: SANGER: Inhibition of human SW1417 cell growth in a cell viability assay.

[31] = test system: SNU-423; assay: cells; assay type: functional, cell-based; conditions: Homo sapiens
Description: SANGER: Inhibition of human SNU-423 cell growth in a cell viability assay.

[32] = test system: T98G; assay: cells; assay type: functional, cell-based; conditions: Homo sapiens;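 further: growth inhibition of T98G cells, read out by a cell viability assay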
Description: SANGER: Inhibition of human T98G cell growth in a cell viability assay.

[33] = test system: JEG-3; assay: cells; assay type: functional, cell-based; conditions: Homo sapiens;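 further: growth inhibition of human JEG-3 cells, read out with a cell viability assay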
Description: SANGER: Inhibition of human JEG-3 cell growth in a cell viability assay.

[34] = test system: CHL-1; assay: cells; assay type: functional, cell-based; conditions: Homo sapiens;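 further: cell growth inhibition, read out with a cell viability assay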
Description: SANGER: Inhibition of human CHL-1 cell growth in a cell viability assay.

[35] = test system: KYSE-450; assay: cells; assay type: functional, cell-based; conditions: Homo sapiens;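 further: cell growth inhibition measured by a viability assay in human KYSE-450 cells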
Description: SANGER: Inhibition of human KYSE-450 cell growth in a cell viability assay.

[36] = test system: Panc1005; assay: cells; assay type: functional, cell-based; conditions: Homo sapiens;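 further: growth inhibition of human PANC-10-05 cells, measured by a cell viability assay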
Description: SANGER: Inhibition of human PANC-10-05 cell growth in a cell viability assay.

[37] = test system: NCI-H727; assay: cells; assay type: functional, cell-based; conditions: Homo sapiens;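 further: growth inhibition of human NCI-H727 cells, read out with a cell viability assay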
Description: SANGER: Inhibition of human NCI-H727 cell growth in a cell viability assay.

[38] = test system: COLO-679; assay: cells; assay type: functional, cell-based; conditions: Homo sapiens
Description: SANGER: Inhibition of human COLO-679 cell growth in a cell viability assay.

[39] = test system: HuP-T4; assay: cells; assay type: functional, cell-based; conditions: Homo sapiens;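 further: cell viability assay measuring how much HuP-T4 cell growth is inhibited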
Description: SANGER: Inhibition of human HuP-T4 cell growth in a cell viability assay.

[40] = test system: NCI-H1437; assay: cells; assay type: functional, cell-based; conditions: Homo sapiens;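 further: growth inhibition of human NCI-H1437 cells, read out by a cell viability assay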
Description: SANGER: Inhibition of human NCI-H1437 cell growth in a cell viability assay.

[41] = test system: COLO-678; assay: cells; assay type: functional, cell-based; conditions: Homo sapiens
Description: SANGER: Inhibition of human COLO-678 cell growth in a cell viability assay.

[42] = test system: DBTRG-05MG; assay: cells; assay type: functional, cell-based; conditions: Homo sapiens;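 further: cell viability assay measuring growth inhibition of human DBTRG-05MG cells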
Description: SANGER: Inhibition of human DBTRG-05MG cell growth in a cell viability assay.

[43] = test system: COLO-792; assay: cells; assay type: functional, cell-based; conditions: Homo sapiens
Description: SANGER: Inhibition of human COLO-792 cell growth in a cell viability assay.

[44] = test system: ChaGo-K-1; assay: cells; assay type: functional, cell-based; conditions: Homo sapiens;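 further: growth inhibition of ChaGo-K-1 cells, read out with a cell viability assay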
Description: SANGER: Inhibition of human ChaGo-K-1 cell growth in a cell viability assay.

[45] = test system: SAOS-2; assay: cells; assay type: functional, cell-based; conditions: Homo sapiens;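 further: growth inhibition of human Saos-2 cells determined by a cell viability assay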
Description: SANGER: Inhibition of human Saos-2 cell growth in a cell viability assay.

[46] = test system: MHH-ES-1; assay: cells; assay type: functional, cell-based; conditions: Homo sapiens
Description: SANGER: Inhibition of human MHH-ES-1 cell growth in a cell viability assay.

[47] = test system: HEC-1; assay: cells; assay type: functional, cell-based; conditions: Homo sapiens;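 further: growth inhibition of the cell line, read out with a cell viability assay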
Description: SANGER: Inhibition of human HEC-1 cell growth in a cell viability assay.

[48] = test system: RPMI-2650; assay: cells; assay type: functional, cell-based; conditions: Homo sapiens
Description: SANGER: Inhibition of human RPMI-2650 cell growth in a cell viability assay.

[49] = test system: BFTC-909; assay: cells; assay type: functional, cell-based; conditions: Homo sapiens
Description: SANGER: Inhibition of human BFTC-909 cell growth in a cell viability assay.

[50] = test system: CAL-12T; assay: cells; assay type: functional, cell-based; conditions: Homo sapiens;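 further: growth inhibition of human CAL-12T cells, read out with a cell viability assay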
Description: SANGER: Inhibition of human CAL-12T cell growth in a cell viability assay.

[51] = test system: FaDu; assay: cells; assay type: functional, cell-based; conditions: Homo sapiens;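 further: cell viability readout of growth inhibition in FaDu cells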
Description: SANGER: Inhibition of human FADU cell growth in a cell viability assay.

[52] = test system: SiHa; assay: cells; assay type: functional, cell-based; conditions: Homo sapiens;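 further: Viability-based readout of growth inhibition in SiHa cells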
Description: SANGER: Inhibition of human SiHa cell growth in a cell viability assay.

[53] = test system: ESS-1; assay: cells; assay type: functional, cell-based; conditions: Homo sapiens;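 further: growth inhibition of human ESS-1 cells, read out by a cell viability assay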
Description: SANGER: Inhibition of human ESS-1 cell growth in a cell viability assay.

[54] = test system: A2780; assay: cells; assay type: functional, cell-based; conditions: Homo sapiens;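 further: growth inhibition of A2780 cells, read out with a cell viability assay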
Description: SANGER: Inhibition of human A2780 cell growth in a cell viability assay.

[55] = test system: COR-L105; assay: cells; assay type: functional, cell-based; conditions: Homo sapiens
Description: SANGER: Inhibition of human COR-L105 cell growth in a cell viability assay.

[56] = test system: NCI-H2030; assay: cells; assay type: functional, cell-based; conditions: Homo sapiens;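 further: growth inhibition of human NCI-H2030 cells, read out by a cell viability assay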
Description: SANGER: Inhibition of human NCI-H2030 cell growth in a cell viability assay.

[57] = test system: SK-N-AS; assay: cells; assay type: functional, cell-based; conditions: Homo sapiens;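 further: growth inhibition of human SK-N-AS cells, measured with a cell viability assay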
Description: SANGER: Inhibition of human SK-N-AS cell growth in a cell viability assay.

[58] = test system: Detroit 562; assay: cells; assay type: functional, cell-based; conditions: Homo sapiens;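 further: growth inhibition of human Detroit 562 cells, read out by a cell viability assay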
Description: SANGER: Inhibition of human Detroit562 cell growth in a cell viability assay.

**Q.** Which IC50 [1] does the source give for `Nc1ccccc1NC(=O)c1ccc(CNC(=O)OCc2cccnc2)cc1` [ENTINOSTAT] here?
**A.** > 5000 nM

**Q.** What about the IC50 [2] of the same compound?
**A.** 116 nM

**Q.** What about the IC50 [3] of the same compound?
**A.** 1350 nM

**Q.** What about the IC50 [4] of the same compound?
**A.** > 5000 nM

**Q.** And the IC50 [5]?
**A.** 338 nM

**Q.** And the IC50 [6]?
**A.** 879 nM

**Q.** And the IC50 [7]?
**A.** > 5000 nM

**Q.** What about the IC50 [8] of the same compound?
**A.** 1300 nM

**Q.** What about the IC50 [9] of the same compound?
**A.** 130 nM

**Q.** What about the IC50 [10] of the same compound?
**A.** 659 nM

**Q.** And the IC50 [11]?
**A.** > 5000 nM

**Q.** What about the IC50 [12] of the same compound?
**A.** 411 nM

**Q.** What about the IC50 [13] of the same compound?
**A.** 578 nM

**Q.** Which IC50 [14] does the source give for `O=C1NC(=O)c2c1c(-c1ccccc1Cl)cc1[nH]c3ccc(O)cc3c21` here?
**A.** > 2000 nM

**Q.** What about the IC50 [15] of the same compound?
**A.** > 2000 nM

**Q.** And the IC50 [16]?
**A.** 542 nM

**Q.** What about the IC50 [17] of the same compound?
**A.** > 2000 nM

**Q.** And the IC50 [18]?
**A.** > 2000 nM

**Q.** What about the IC50 [19] of the same compound?
**A.** > 2000 nM

**Q.** What about the IC50 [20] of the same compound?
**A.** > 2000 nM

**Q.** What about the IC50 [21] of the same compound?
**A.** 1270 nM

**Q.** And the IC50 [22]?
**A.** 852 nM

**Q.** And the IC50 [23]?
**A.** > 2000 nM

**Q.** And the IC50 [24]?
**A.** 1690 nM

**Q.** What about the IC50 [25] of the same compound?
**A.** > 2000 nM

**Q.** And the IC50 [26]?
**A.** > 2000 nM

**Q.** And the IC50 [27]?
**A.** > 2000 nM

**Q.** What about the IC50 [28] of the same compound?
**A.** > 2000 nM

**Q.** What about the IC50 [29] of the same compound?
**A.** > 2000 nM

**Q.** And the IC50 [30]?
**A.** > 2000 nM

**Q.** And the IC50 [31]?
**A.** > 2000 nM

**Q.** And the IC50 [1]?
**A.** > 2000 nM

**Q.** And the IC50 [32]?
**A.** > 2000 nM

**Q.** And the IC50 [5]?
**A.** > 2000 nM

**Q.** What about the IC50 [33] of the same compound?
**A.** > 2000 nM

**Q.** What about the IC50 [34] of the same compound?
**A.** 1050 nM

**Q.** What about the IC50 [35] of the same compound?
**A.** > 2000 nM

**Q.** And the IC50 [36]?
**A.** > 2000 nM

**Q.** And the IC50 [37]?
**A.** > 2000 nM

**Q.** What about the IC50 [38] of the same compound?
**A.** > 2000 nM

**Q.** And the IC50 [39]?
**A.** > 2000 nM

**Q.** And the IC50 [40]?
**A.** > 2000 nM

**Q.** And the IC50 [41]?
**A.** > 2000 nM

**Q.** What about the IC50 [42] of the same compound?
**A.** > 2000 nM

**Q.** What about the IC50 [43] of the same compound?
**A.** > 2000 nM

**Q.** And the IC50 [44]?
**A.** > 2000 nM

**Q.** What about the IC50 [45] of the same compound?
**A.** > 2000 nM

**Q.** And the IC50 [46]?
**A.** > 2000 nM

**Q.** What about the IC50 [47] of the same compound?
**A.** > 2000 nM

**Q.** And the IC50 [48]?
**A.** > 2000 nM

**Q.** What about the IC50 [49] of the same compound?
**A.** > 2000 nM

**Q.** What about the IC50 [50] of the same compound?
**A.** > 2000 nM

**Q.** What about the IC50 [51] of the same compound?
**A.** > 2000 nM

**Q.** What about the IC50 [52] of the same compound?
**A.** > 2000 nM

**Q.** What about the IC50 [53] of the same compound?
**A.** > 2000 nM

**Q.** And the IC50 [54]?
**A.** > 2000 nM

**Q.** And the IC50 [55]?
**A.** > 2000 nM

**Q.** And the IC50 [56]?
**A.** 1290 nM

**Q.** What about the IC50 [57] of the same compound?
**A.** 1810 nM

**Q.** What about the IC50 [58] of the same compound?
**A.** > 2000 nM

**Q.** `Cc1ccc(NC(=O)c2ccc(CN3CCN(C)CC3)cc2)cc1Nc1nccc(-c2cccnc2)n1` [IMATINIB] was tested. Which IC50 [2] did it give?
**A.** > 2000 nM

**Q.** What about the IC50 [3] of the same compound?
**A.** > 2000 nM

**Q.** And the IC50 [4]?
**A.** > 2000 nM

**Q.** And the IC50 [5]?
**A.** > 2000 nM

**Q.** And the IC50 [6]?
**A.** 685 nM

**Q.** And the IC50 [7]?
**A.** > 2000 nM

**Q.** And the IC50 [8]?
**A.** > 2000 nM

**Q.** And the IC50 [9]?
**A.** > 2000 nM

**Q.** What about the IC50 [10] of the same compound?
**A.** > 2000 nM

**Q.** And the IC50 [11]?
**A.** > 2000 nM

**Q.** What about the IC50 [12] of the same compound?
**A.** > 2000 nM
